In the supplement of paper PMC5908809:

What was measured:
[1] = system: normal NK cells expanded with K562-aAPC; experiment: percent inhibition of viability; higher = more inhibition; conditions: 72 h, IL-2 2.5 ng/mL
Protocol: (§1)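 Drug sensitivity and resistance testing on K562-aAPC-expanded normal NK cells: 5 concentrations (10-fold steps over a 10,000-fold range), 72 h at 37 °C, viability by CellTiter-Glo normalised to DMSO and benzethonium chloride controls; DSS from the fitted curve.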

DERL-7 (IL-2 2.5 ng/mL) [2] = experiment: as above; conditions: 72 h
IMC-1 (IL-2 20 ng/mL) [3] = experiment: as above; conditions: 72 h
KAI3 (IL-2 2.5 ng/mL) [4] = experiment: as above; conditions: 72 h
KHYG-1 (IL-2 2.5 ng/mL) [5] = experiment: as above; conditions: 72 h
NK-92 (IL-2 2.5 ng/mL) [6] = experiment: as above; conditions: 72 h
NK-YS (IL-2 2.5 ng/mL) [7] = experiment: as above; conditions: 72 h
NKL (IL-2 2.5 ng/mL) [8] = experiment: as above; conditions: 72 h
SNK-6 (IL-2 2.5 ng/mL) [9] = experiment: as above; conditions: 72 h
YT (IL-2 2.5 ng/mL) [10] = experiment: as above; conditions: 72 h
[11] = system: normal primary NK cells, pool 1 (3 donors) (IL-2 2.5 ng/mL); experiment: as above; conditions: 72 h
[12] = system: normal primary NK cells, pool 1 (3 donors), resting (IL-2 0 ng/mL); experiment: as above; conditions: 72 h
[13] = system: normal primary NK cells, pool 2 (3 donors) (IL-2 2.5 ng/mL); experiment: as above; conditions: 72 h
[14] = system: normal primary NK cells, pool 3 (3 donors) (IL-2 2.5 ng/mL); experiment: as above; conditions: 72 h
[15] = system: normal NK cells expanded with K562-aAPC; experiment: drug sensitivity score (DSS) (DSS units); higher = more sensitive; extreme values may be limits of the assay; conditions: 72 h; IL-2 2.5 ng/mL
Protocol: as §1

DERL-7 (IL-2 2.5 ng/mL) [16] = experiment: as above; conditions: 72 h
IMC-1 (IL-2 20 ng/mL) [17] = experiment: as above; conditions: 72 h
KAI3 (IL-2 2.5 ng/mL) [18] = experiment: as above; conditions: 72 h
KHYG-1 (IL-2 2.5 ng/mL) [19] = experiment: as above; conditions: 72 h
NK-92 (IL-2 2.5 ng/mL) [20] = experiment: as above; conditions: 72 h
NK-YS (IL-2 2.5 ng/mL) [21] = experiment: as above; conditions: 72 h
NKL (IL-2 2.5 ng/mL) [22] = experiment: as above; conditions: 72 h
SNK-6 (IL-2 2.5 ng/mL) [23] = experiment: as above; conditions: 72 h
YT (IL-2 2.5 ng/mL) [24] = experiment: as above; conditions: 72 h
[25] = system: normal primary NK cells, pool 1 (3 donors) (IL-2 2.5 ng/mL); experiment: as above; conditions: 72 h
[26] = system: normal primary NK cells, pool 1 (3 donors), resting (IL-2 0 ng/mL); experiment: as above; conditions: 72 h
[27] = system: normal primary NK cells, pool 2 (3 donors) (IL-2 2.5 ng/mL); experiment: as above; conditions: 72 h
[28] = system: normal primary NK cells, pool 3 (3 donors) (IL-2 2.5 ng/mL); experiment: as above; conditions: 72 h

CCNC(=O)CCC/C=C\C[C@@H]1[C@@H](/C=C/[C@@H](O)CCc2ccccc2)[C@H](O)C[C@@H]1O [Bimatoprost] (max concentration tested 5500 nM)
percent inhibition of viability [%]
Conditions | 0.55 nM | 5.5 nM | 55 nM | 550 nM | 5500 nM
DERL-7 (IL-2 2.5 ng/mL) [2] | -5.3 | -2.53 | -3.35 | -10.4 | -4.94
IMC-1 (IL-2 20 ng/mL) [3] | -1.84 | -3.91 | -0.72 | -4.98 | -0.62
KAI3 (IL-2 2.5 ng/mL) [4] | -9.15 | -10.1 | -8.67 | -6.35 | -7.76
KHYG-1 (IL-2 2.5 ng/mL) [5] | -6.16 | -6.81 | -5.76 | -5.66 | -2.75
NK-92 (IL-2 2.5 ng/mL) [6] | -8.7 | -4.9 | -11.6 | -5.65 | -8.03
NK-YS (IL-2 2.5 ng/mL) [7] | -3.18 | -8.08 | -6.49 | -9.97 | -6.34
NKL (IL-2 2.5 ng/mL) [8] | -10.6 | -7.92 | -13.9 | -14.1 | 7.05
SNK-6 (IL-2 2.5 ng/mL) [9] | 17.6 | 0.29 | 2.65 | -15.2 | -3.36
YT (IL-2 2.5 ng/mL) [10] | -1.68 | -3.7 | -5.41 | -3.35 | -5.44
[1] | -0.32 | -7.8 | -7.43 | -6.39 | -7.75
[11] | -4.1 | -2.93 | -7.66 | 5.27 | 3.45
[12] | 5.81 | -2 | -9.81 | 4.1 | 6.67
[13] | -11.3 | -11.2 | -11.5 | -10.1 | -6.11
[14] | -15.9 | -13.5 | -18 | -10.8 | -6.94

Conditions | drug sensitivity score
DERL-7 (IL-2 2.5 ng/mL) [16] | 0.89
IMC-1 (IL-2 20 ng/mL) [17] | 0.89
KAI3 (IL-2 2.5 ng/mL) [18] | 0.89
KHYG-1 (IL-2 2.5 ng/mL) [19] | 0.89
NK-92 (IL-2 2.5 ng/mL) [20] | 0.89
NK-YS (IL-2 2.5 ng/mL) [21] | 0.89
NKL (IL-2 2.5 ng/mL) [22] | 0
SNK-6 (IL-2 2.5 ng/mL) [23] | 0
YT (IL-2 2.5 ng/mL) [24] | 0.89
[15] | 0.89
[25] | 0
[26] | 0
[27] | 0.89
[28] | 0.89

COc1cc(Nc2c(C#N)cnc3cc(OCCCN4CCN(C)CC4)c(OC)cc23)c(Cl)cc1Cl [Bosutinib] (max concentration tested 10000 nM)
percent inhibition of viability [%]
Conditions | 1 nM | 10 nM | 100 nM | 1000 nM | 10000 nM
DERL-7 (IL-2 2.5 ng/mL) [2] | 1.55 | 6.21 | 8.26 | 37.4 | 100
IMC-1 (IL-2 20 ng/mL) [3] | -6.46 | 0.66 | -10.5 | -9.81 | 96.6
KAI3 (IL-2 2.5 ng/mL) [4] | 8.38 | 12 | 3.26 | 31.6 | 97.2
KHYG-1 (IL-2 2.5 ng/mL) [5] | -3.69 | 1.01 | -1.05 | 26.2 | 96.2
NK-92 (IL-2 2.5 ng/mL) [6] | -0.68 | -2.8 | -0.62 | 22.4 | 97.7
NK-YS (IL-2 2.5 ng/mL) [7] | -4.4 | -3.22 | -2.75 | 2.53 | 96.7
NKL (IL-2 2.5 ng/mL) [8] | -12.2 | -8.59 | -6.88 | 0.83 | 95.5
SNK-6 (IL-2 2.5 ng/mL) [9] | 6.03 | 14.6 | -18.2 | -17.4 | 99.7
YT (IL-2 2.5 ng/mL) [10] | 1.55 | 1.24 | 2.37 | 15.2 | 97.2
[1] | 4.72 | 2.21 | 15.7 | 3.76 | 99.9
[11] | -9.61 | -1.56 | 4.38 | 20.6 | 100
[12] | -6.19 | -3.78 | 1.15 | 58.5 | 99.3
[13] | -12.2 | -5.59 | -2.85 | 25.5 | 98.1
[14] | 0.05 | -0.81 | 10.8 | -5.33 | 99.8

Conditions | drug sensitivity score
DERL-7 (IL-2 2.5 ng/mL) [16] | 9.96
IMC-1 (IL-2 20 ng/mL) [17] | 4.71
KAI3 (IL-2 2.5 ng/mL) [18] | 9.81
KHYG-1 (IL-2 2.5 ng/mL) [19] | 9.26
NK-92 (IL-2 2.5 ng/mL) [20] | 8.9
NK-YS (IL-2 2.5 ng/mL) [21] | 5.71
NKL (IL-2 2.5 ng/mL) [22] | 5.43
SNK-6 (IL-2 2.5 ng/mL) [23] | 4.57
YT (IL-2 2.5 ng/mL) [24] | 7.9
[15] | 6.07
[25] | 8.82
[26] | 12.4
[27] | 9.3
[28] | 5.14

CCC/C=C/C=C/C(=O)O[C@H]1/C(=C/C(=O)OC)C[C@H]2C[C@H]([C@@H](C)O)OC(=O)C[C@H](O)C[C@@H]3C[C@H](OC(C)=O)C(C)(C)[C@](O)(C[C@@H]4C/C(=C/C(=O)OC)C[C@H](/C=C/C(C)(C)[C@]1(O)O2)O4)O3 [Bryostatin 1] (max concentration tested 100 nM)
percent inhibition of viability [%]
Conditions | 0.01 nM | 0.1 nM | 1 nM | 10 nM | 100 nM
DERL-7 (IL-2 2.5 ng/mL) [2] | -2.14 | -19.4 | 24.4 | 20 | 35.2
IMC-1 (IL-2 20 ng/mL) [3] | -3.95 | 3.27 | 75.6 | 68.3 | 62.7
KAI3 (IL-2 2.5 ng/mL) [4] | 0.24 | 5.23 | 4.64 | 21.7 | -6.8
KHYG-1 (IL-2 2.5 ng/mL) [5] | 1.17 | 35.4 | 102 | 106 | 99.2
NK-92 (IL-2 2.5 ng/mL) [6] | -10.7 | 25.5 | 87.5 | 103 | 95.4
NK-YS (IL-2 2.5 ng/mL) [7] | -5.4 | -9.97 | -7.91 | 1.59 | -4.21
NKL (IL-2 2.5 ng/mL) [8] | -18.8 | -58.9 | -74.9 | -67.5 | -81.5
SNK-6 (IL-2 2.5 ng/mL) [9] | 13.4 | 39.5 | 64.4 | 35.5 | 18
YT (IL-2 2.5 ng/mL) [10] | 2.73 | -2.33 | -3.22 | 1.88 | 1.24
[1] | -6.34 | -41.9 | -55.2 | -31.9 | -30.3
[11] | -10.4 | -18.6 | -14.9 | -23.1 | -10.7
[12] | -14.3 | 14.4 | -0.07 | -6.68 | 5.47
[13] | -15.1 | -25.1 | -48.2 | -38 | -37.6
[14] | -5.42 | -30.1 | -40.2 | -35 | -20.7

Conditions | drug sensitivity score
DERL-7 (IL-2 2.5 ng/mL) [16] | 8.96
IMC-1 (IL-2 20 ng/mL) [17] | 23.9
KAI3 (IL-2 2.5 ng/mL) [18] | 0
KHYG-1 (IL-2 2.5 ng/mL) [19] | 35.4
NK-92 (IL-2 2.5 ng/mL) [20] | 31.7
NK-YS (IL-2 2.5 ng/mL) [21] | 0
NKL (IL-2 2.5 ng/mL) [22] | 0
SNK-6 (IL-2 2.5 ng/mL) [23] | 14.9
YT (IL-2 2.5 ng/mL) [24] | 0
[15] | 0
[25] | 0
[26] | 0
[27] | 0
[28] | 0
